Laboratory results published in patent US12649750B2, “Macrocyclic compounds, compositions, and methods of using thereof” (Sionna Therapeutics Inc., priority 2022, dated 2026).

Key:
NBD1 = biological target: T1, NBD1 (Homo sapiens, UniProt P13569); test: Aggregation analysis using differential static light scattering (DSLS), thermal stability of NBD1 (ΔTagg); type: binding; details: ΔTagg versus DMSO control, NBD1 0.2 mg/ml
T1 construct: Purified recombinant NBD1 was produced using previously described methods; made in house
Method in brief: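 Stabilisation is measured as the shift in aggregation onset of recombinant NBD1 (0.2 mg/ml, 2 mM ATP, 5 mM MgCl2, pH7.6) exposed to compound. Images are taken every 0.5° C. while heating at 1° C. per minute, and the inflection-point Tagg is corrected by the DMSO mean.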

CFTR = biological target: T2, CFTR (Homo sapiens, UniProt P13569, DEL508-508); test: TECC24 AUC fold over DMSO @10 μM, CFTR-mediated transepithelial chloride transport in CF-HBE cells; type: cell-based; details: test agent AUC divided by DMSO vehicle AUC, primary CF-HBE cells, ΔF508 homozygous donor, 48 hours incubation
T2 construct: Primary human bronchial epithelial cells from a ΔF508 homozygous CF donor; host or cells: primary human bronchial epithelial cells (CF-HBE), ΔF508 homozygous donor
Method in brief: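 Primary ΔF508-homozygous CF bronchial epithelial cells on inserts were incubated 48 h at 36.5 °C with compound in IL-13-containing medium. VT and TEER were then recorded in current-clamp mode (pH 7.4 HEPES bath) with benzamil 10 μM, forskolin 10 μM, then CFTR inhibitor-172 20 μM. The IEQ AUC between forskolin and inhibitor was divided by vehicle AUC.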

T1 sequence (P13569 423-646 limits assumed): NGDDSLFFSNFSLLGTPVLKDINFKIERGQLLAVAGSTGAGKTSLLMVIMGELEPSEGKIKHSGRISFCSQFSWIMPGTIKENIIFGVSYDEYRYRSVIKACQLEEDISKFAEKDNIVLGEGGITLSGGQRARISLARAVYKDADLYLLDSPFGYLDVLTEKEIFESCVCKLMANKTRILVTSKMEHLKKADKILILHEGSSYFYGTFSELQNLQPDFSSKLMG
T2 sequence (P13569 with tags, fused parts or gaps DEL508-508): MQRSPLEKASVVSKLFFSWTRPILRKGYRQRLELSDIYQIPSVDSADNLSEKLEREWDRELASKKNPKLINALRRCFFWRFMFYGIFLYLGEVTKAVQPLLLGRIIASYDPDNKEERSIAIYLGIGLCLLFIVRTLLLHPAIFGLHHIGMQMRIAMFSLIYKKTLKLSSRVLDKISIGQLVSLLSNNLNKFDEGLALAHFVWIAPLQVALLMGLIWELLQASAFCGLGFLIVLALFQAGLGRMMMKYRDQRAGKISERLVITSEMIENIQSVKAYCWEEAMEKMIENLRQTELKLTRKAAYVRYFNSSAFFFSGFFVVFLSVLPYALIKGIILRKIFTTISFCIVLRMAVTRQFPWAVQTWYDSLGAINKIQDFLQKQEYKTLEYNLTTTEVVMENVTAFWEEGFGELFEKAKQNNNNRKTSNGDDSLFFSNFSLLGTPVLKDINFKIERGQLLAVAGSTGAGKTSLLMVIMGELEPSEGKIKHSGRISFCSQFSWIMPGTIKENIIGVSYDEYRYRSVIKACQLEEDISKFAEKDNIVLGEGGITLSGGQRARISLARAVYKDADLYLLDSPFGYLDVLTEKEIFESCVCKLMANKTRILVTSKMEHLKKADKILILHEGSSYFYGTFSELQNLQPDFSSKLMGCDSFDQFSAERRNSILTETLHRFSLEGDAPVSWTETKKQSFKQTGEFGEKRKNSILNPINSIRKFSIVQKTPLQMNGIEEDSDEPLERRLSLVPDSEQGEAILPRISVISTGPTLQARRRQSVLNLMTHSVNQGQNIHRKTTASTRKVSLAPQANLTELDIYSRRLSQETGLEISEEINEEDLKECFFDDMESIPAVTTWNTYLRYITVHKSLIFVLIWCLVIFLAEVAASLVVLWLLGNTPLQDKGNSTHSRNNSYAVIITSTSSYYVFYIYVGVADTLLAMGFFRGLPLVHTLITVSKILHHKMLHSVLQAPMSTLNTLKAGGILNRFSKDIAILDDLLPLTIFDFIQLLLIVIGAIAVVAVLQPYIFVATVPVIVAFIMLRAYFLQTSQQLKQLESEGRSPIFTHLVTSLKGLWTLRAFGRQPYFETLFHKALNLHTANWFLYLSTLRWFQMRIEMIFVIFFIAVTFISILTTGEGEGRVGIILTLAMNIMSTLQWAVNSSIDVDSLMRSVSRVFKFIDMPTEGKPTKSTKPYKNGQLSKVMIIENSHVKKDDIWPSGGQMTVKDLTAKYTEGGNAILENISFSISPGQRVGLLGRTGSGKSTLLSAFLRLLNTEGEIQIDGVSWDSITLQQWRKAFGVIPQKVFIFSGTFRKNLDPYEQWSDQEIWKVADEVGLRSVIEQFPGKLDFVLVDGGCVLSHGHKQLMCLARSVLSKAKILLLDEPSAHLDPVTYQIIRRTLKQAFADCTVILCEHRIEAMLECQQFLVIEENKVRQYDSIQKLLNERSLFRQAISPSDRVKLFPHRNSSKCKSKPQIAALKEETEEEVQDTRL

Compound	DSLS 3D (100 μM ΔT) (NBD1)	TECC (AUC, 10 μM) (CFTR)
CC(CCc1cccc(C2(C)CCCC(C)(C)CS(=O)(=O)CCc3c(c(F)cc4[nH]ccc34)Oc3ccc(F)c(c3)-c3nc2nn3C)c1)C(=O)O (stereo not shown) [Compound 160, 4-[3-(22,28-Difluoro-3,6,10,10-tetramethyl-12,12-dioxo-24-oxa-12λ6-thia-3,4,19,30-tetrazapentacyclo[23.3.1.12,5.015,23.016,20]triaconta-1(29),2(30),4,15,17,20,22,25,27-nonaen-6-yl)phenyl]-2-methyl-butanoic Acid]	C (a value greater than 10 °C and less than or equal to 25 °C is marked “C”)	A (a TECC value less than 12 is marked “A”)
C[C@@H](Cc1cccc(C2CCCC(C)(C)CS(=O)(=O)CCc3c(c(F)cc4[nH]ccc34)C(=O)c3cccc(c3)-c3ccn2n3)c1)C(=O)O (stereo partly drawn) [Compound 163, (2S)-3-[3-(22-Fluoro-10,10-dimethyl-12,12,24-trioxo-12λ6-thia-5,19,30-triazapentacyclo[23.3.1.12,5.015,23.016,20]triaconta-1(29),2(30),3,15,17,20,22,25,27-nonaen-6-yl)phenyl]-2-methyl-propanoic Acid]	A (an ΔTagg value less than or equal to 5 °C is marked “A”)	A (a TECC value less than 12 is marked “A”)
C[C@H](Cc1cccc(C2CCCC(C)(C)CS(=O)(=O)CCc3c(c(F)cc4[nH]ccc34)C(=O)c3cccc(c3)-c3ccn2n3)c1)C(=O)O (stereo partly drawn) [Compound 164, (2R)-3-[3-(22-Fluoro-10,10-dimethyl-12,12,24-trioxo-12λ6-thia-5,19,30-triazapentacyclo[23.3.1.12,5.015,23.016,20]triaconta-1(29),2(30),3,15,17,20,22,25,27-nonaen-6-yl)phenyl]-2-methyl-propanoic acid]	A (an ΔTagg value less than or equal to 5 °C is marked “A”)	A (a TECC value less than 12 is marked “A”)
Cn1nc2nc1-c1cc(ccc1F)Oc1c(F)cc3[nH]ccc3c1CCS(=O)(=O)CC(C)(C)CCCC2(C)c1cccc(CC(C(=O)O)C(F)(F)F)c1 (stereo not shown) [Compound 168, 2-[[3-(22,28-Difluoro-3,6,10,10-tetramethyl-12,12-dioxo-24-oxa-12λ6-thia-3,4,19,30-tetrazapentacyclo[23.3.1.12,5.015,23.016,20]triaconta-1(29),2(30),4,15,17,20,22,25,27-nonaen-6-yl)phenyl]methyl]-3,3,3-trifluoro-propanoic acid]	C (a value greater than 10 °C and less than or equal to 25 °C is marked “C”)	B (a value between 12-20 is marked “B”)
Cc1cn2nc1-c1cccc(c1)C(=O)c1c(F)cc3[nH]ccc3c1CCS(=O)(=O)CC(C)(C)CCCC2c1cccc(C[C@H](C)C(=O)O)c1 (stereo partly drawn) [Compound 170, (2S)-3-[3-(22-Fluoro-3,10,10-trimethyl-12,12,24-trioxo-12λ6-thia-5,19,30-triazapentacyclo[23.3.1.12,5.015,23.016,20]triaconta-1(29),2(30),3,15,17,20,22,25,27-nonaen-6-yl)phenyl]-2-methyl-propanoic Acid]	A (an ΔTagg value less than or equal to 5 °C is marked “A”)	A (a TECC value less than 12 is marked “A”)
Cn1nc2nc1-c1cc(ccc1F)Oc1c(F)cc3[nH]ccc3c1CCS(=O)(=O)CC(C)(C)CCCC2(C)c1cccc(/C=C2\CCOC2=O)c1 (stereo not shown) [Compound 172, (3E)-3-[[3-(22,28-Difluoro-3,6,10,10-tetramethyl-12,12-dioxo-24-oxa-12λ6-thia-3,4,19,30-tetrazapentacyclo[23.3.1.12,5.015,23.016,20]triaconta-1(29),2(30),4,15,17,20,22,25,27-nonaen-6-yl)phenyl]methylene]tetrahydrofuran-2-one]	B (a value above 5 °C and less than or equal to 10 °C is marked “B”)	A (a TECC value less than 12 is marked “A”)
Cn1nc2nc1-c1cc(ccc1F)Oc1c(F)cc3[nH]ccc3c1CCS(=O)(=O)CC(C)(C)CCCC2(C)c1cccc(CC2CCOC2=O)c1 (stereo not shown) [Compound 173, 3-[[3-(22,28-Difluoro-3,6,10,10-tetramethyl-12,12-dioxo-24-oxa-12λ6-thia-3,4,19,30-tetrazapentacyclo[23.3.1.12,5.015,23.016,20]triaconta-1(29),2(30),4,15,17,20,22,25,27-nonaen-6-yl)phenyl]methyl]tetrahydrofuran-2-one]	B (a value above 5 °C and less than or equal to 10 °C is marked “B”)	C (a value between 20 and 80 is marked “C”)
Cn1nc2nc1-c1cc(ccc1F)Oc1c(F)cc3[nH]ccc3c1CCS(=O)(=O)CC(C)(C)CCCC2(C)c1cccc(CC2NC(=O)NC2=O)c1 (stereo not shown) [Compound 175, 5-[[3-(22,28-Difluoro-3,6,10,10-tetramethyl-12,12-dioxo-24-oxa-12λ6-thia-3,4,19,30-tetrazapentacyclo[23.3.1.12,5.015,23.016,20]triaconta-1(29),2(30),4,15,17,20,22,25,27-nonaen-6-yl)phenyl]methyl]imidazolidine-2,4-dione]	C (a value greater than 10 °C and less than or equal to 25 °C is marked “C”)	A (a TECC value less than 12 is marked “A”)
Cn1nc2nc1-c1cc(ccc1F)Oc1c(F)cc3[nH]ccc3c1CCS(=O)(=O)CC(C)(C)CCCC2(C)c1cccc(C(O)C2NC(=O)NC2=O)c1 (stereo not shown) [Compound 176, 5-[[3-(22,28-Difluoro-3,6,10,10-tetramethyl-12,12-dioxo-24-oxa-12λ6-thia-3,4,19,30-tetrazapentacyclo[23.3.1.12,5.015,23.016,20]triaconta-1(29),2(30),4,15,17,20,22,25,27-nonaen-6-yl)phenyl]-hydroxy-methyl]imidazolidine-2,4-dione]	C (a value greater than 10 °C and less than or equal to 25 °C is marked “C”)	B (a value between 12-20 is marked “B”)
CCOC(=O)CC(O)c1cccc(C2(C)CCCC(C)(C)CS(=O)(=O)CCc3c(c(F)cc4[nH]ccc34)Oc3ccc(F)c(c3)-c3nc2nn3C)c1 (stereo not shown) [Compound 177, Ethyl 3-[3-(22,28-difluoro-3,6,10,10-tetramethyl-12,12-dioxo-24-oxa-12λ6-thia-3,4,19,30-tetrazapentacyclo[23.3.1.12,5.015,23.016,20]-triaconta-1(29),2(30),4,15,17,20,22,25,27-nonaen-6-yl)phenyl]-3-hydroxy-propanoate]	B (a value above 5 °C and less than or equal to 10 °C is marked “B”)	C (a value between 20 and 80 is marked “C”)
Cn1nc2nc1-c1cc(ccc1F)Oc1c(F)cc3[nH]ccc3c1CCS(=O)(=O)CC(C)(C)CCCC2(C)c1cccc(C(O)CC(=O)O)c1 (stereo not shown) [Compound 178, 3-[3-(22,28-Difluoro-3,6,10,10-tetramethyl-12,12-dioxo-24-oxa-12λ6-thia-3,4,19,30-tetrazapentacyclo[23.3.1.12,5.015,23.016,20]triaconta-1(29),2(30),4,15,17,20,22,25,27-nonaen-6-yl)phenyl]-3-hydroxy-propanoic Acid]	C (a value greater than 10 °C and less than or equal to 25 °C is marked “C”)	C (a value between 20 and 80 is marked “C”)
